Source: EP0478101B1, “Therapeutic use of peptides having thrombospondin-like activity” (W.R. Grace & Co.-Conn., priority 1990, dated 1992)
Positions of bridges follow the written chain, without caps; N, C: chain ends. Residues, ends and D or L forms follow the SMILES beside them. No end group written: not given here.

Legend:
Experiment in all cases: Cell adhesion to peptide-coated wells compared with thrombospondin
Type in all cases: cell-based
Conditions in all cases: two micrograms of peptide dried on well, 200,000 cells per well, 30 minutes at 37°C, relative to thrombospondin
[1] = tested on: B16-F10 Mouse Melanoma
Method: (§1) In this example a series of peptides were tested to determine the abilities of the peptides to bind various cells as compared to thrombospondin. It is believed that thrombospondin acts in metastasis through its adhesive properties. An assay was developed, generally in accordance with the disclosure of Tuszynski et al. (Anal. Bio. (1990) 184:189-91) which evaluates the ability of cells to adhere to the thrombospondin fragments or analogs of the invention. In this assay, thrombospondin (purified by the method of Tuszynski et al., J. Biol. Chem. (1985) 260:12240-5) served as a positive control, bovine serum albumin (BSA) (Sigma Chemical Co.) and the peptides ANKHYF and VCTGSC and TCVCGS served as negative controls. The cell types evaluated were B16F10 mouse melanoma cells, A549 human lung adrenocarcinoma cells, bovine aortic smooth muscle cells, and rabbit smooth muscle cells.
(§2) Thrombospondin analogs of the invention were synthesized as described in Examples 1-4. Two micrograms of peptide or control proteins were air dried overnight on the wells of a 96-well microtiter plate. Wells were then washed with HEPES-buffered saline and blocked for 1 hour with 1% fatty acid free BSA in HEPES-buffered saline.
(§3) The various cells were grown and harvested during log phase of growth using standard procedures. The harvested cells were washed two times in serum-free Dulbecco's minimum essential medium (DMEM) (Flow Laboratories) and suspended in HEPES-buffered saline, containing 5 mM glucose and 100 µM MgCl2 at a final concentration of […]. Of the cell suspension 200,000 cells per well was added to each well of the microtiter dish containing the various ligands and the dish incubated at 37°C in a CO2 incubator for 30 minutes. Nonadherent cells were removed by aspiration and the wells washed three times with 200 µl of PBS. The total cell-associated protein was determined by dissolving the attached cells directly in the microtiter wells with 200 µl of the Pierce BCA working solution (Pierce Chem. Co. Booklet No. 23225 (1987)). The plate was covered with an adhesive mylar sheet (Flow Labs) and incubated at 60°C for 30 minutes. Plates were allowed to cool to room temperature, cover sheets were removed, and the absorbance of each well was determined at 562 nm with a microtiter plate reader (Biotek, Burlington, Vermont.) Absorbances were converted to number of adherent cells by means of an empirically determined conversion factor.

[2] = tested on: A549 Human Lung Adenocarcinoma
Method: as §1, §2, §3

[3] = tested on: Bovine Aortic Endothelia 1 Cells
Method: [Worded in the source for another cell line; this cell line is reported under the same test.] as §1, §2, §3

[4] = tested on: Rabbit Smooth Muscle
Method: as §1, §2, §3

Row | Compound | Percent of TSP-adherent Cells [1] | Percent of TSP-adherent Cells [2] | Percent of TSP-adherent Cells [3] | Percent of TSP-adherent Cells [4]
1 | CC(C)[C@H](NC(=O)[C@H](CO)NC(=O)[C@@H](N)CS)C(=O)N[C@H](C(=O)N[C@@H](CS)C(=O)N[C@@H](CCCNC(=N)N)C(=O)O)[C@@H](C)O [CSVTCR (SEQ ID NO:2), CSVTCR] (H-CSVTCR-OH) | 92% | 90% | 99% | 159%
2 | Blocked CSVTCG [Blocked CSVTCG (SEQ ID NO:1)] | 32% | 44% | 22% | 46%
3 | CC(C)[C@H](NC(=O)[C@H](CCCNC(=N)N)NC(=O)[C@@H](N)CS)C(=O)N[C@H](C(=O)N[C@@H](CS)C(=O)NCC(=O)O)[C@@H](C)O [CRVTCG (SEQ ID NO:5), CRVTCG] (H-CRVTCG-OH) | 92% | 79% | 80% | 82%
4 | CC(C)[C@@H]1NC(=O)[C@H](CO)NC(=O)[C@@H](N)CSSC[C@@H](C(=O)NCC(=O)O)NC(=O)[C@H]([C@@H](C)O)NC1=O [Cyclic CSVTCG (SEQ ID NO:1), cyclic CSVTCG-Acid] (H-CSVTCG-OH; disulfide 1-5) | 30% | 29% | 25% | 43%
5 | CC(C)[C@H](NC(=O)[C@H](CS)NC(=O)[C@@H](N)[C@@H](C)O)C(=O)N[C@@H](CS)C(=O)NCC(=O)N[C@@H](CO)C(=O)O [TCVCGS, reference compound] (H-TCVCGS-OH) | 10% | 10% | 6% | 8%
6 | ANKHYF [ANKHYF, reference compound] | 8% | 10% | 0% | 17%
7 | CC(C)[C@H](NC(=O)[C@H](CO)NC(=O)[C@@H](N)CS)C(=O)N[C@H](C(=O)N[C@@H](CS)C(=O)NCC(=O)O)[C@@H](C)O [CSVTCG (SEQ ID NO:1), CSVTCG] (H-CSVTCG-OH) | 40% | 29% | 49% | 44%
8 | ASVTAR [ASVTAR (SEQ ID NO:7), ASVTAR] | 39% | – | – | –
9 | C[C@@H](O)[C@H](NC(=O)[C@H](CO)NC(=O)[C@@H](N)CS)C(=O)N[C@@H](CO)C(=O)N[C@@H](CS)C(=O)NCC(=O)O [CSTSCG (SEQ ID NO:4), CSTSCG] (H-CSTSCG-OH) | 37% | 23% | 39% | 22%
10 | C[C@@H](O)[C@H](NC(=O)[C@H](CO)NC(=O)[C@@H](N)CS)C(=O)N[C@@H](CO)C(=O)N[C@@H](CS)C(=O)N[C@@H](CCCNC(=N)N)C(=O)O [CSTSCR (SEQ ID NO:3), CSTSCR] (H-CSTSCR-OH) | 39% | 104% | 65% | 82%
11 | CC(C)[C@H](N)C(=O)N[C@@H](CS)C(=O)N[C@H](C(=O)NCC(=O)N[C@@H](CO)C(=O)N[C@@H](CS)C(=O)O)[C@@H](C)O [VCTGSC, reference compound] (H-VCTGSC-OH) | 2% | 8% | 3% | 17%
